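Method: 48-hour compound exposure of cells in 96-well plates, five concentrations, linear interpolation of endpoints. The concentration for 50% growth inhibition is given as GI50.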 Active and inactive are the calls of the source. Rule as the data show it: active = GI50 up to about 1.1 µM and inactive = higher.
Tests used:
Experiment in all cases: NCI anticancer screen, dose series, 48 h
MCF7 = test system: MCF7
NCI-H23 = test system: NCI-H23
SN12C = test system: SN12C
HL-60 = test system: HL-60
SNB-75 = test system: SNB-75
Hs-578T = test system: Hs-578T
BT-549 = test system: BT-549
A549 = test system: A549
SW-620 = test system: SW-620
SF-539 = test system: SF-539
SK-MEL-28 = test system: SK-MEL-28
M14 = test system: M14
U-251 = test system: U-251
MDA-MB-231 = test system: MDA-MB-231
CAKI-1 = test system: CAKI-1
ACHN = test system: ACHN
SF-268 = test system: SF-268
RXF 393 = test system: RXF 393
UACC-257 = test system: UACC-257
NCI/ADR-RES = test system: NCI/ADR-RES

Measured: GI50

CC(=O)Oc1ccc2c(c1)CC[C@@H]1C2CC[C@]2(C)C(=O)NC(=O)CC12 (some centres not stated)
inactive: MCF7 > 100 µM | NCI-H23 > 100 µM | SN12C > 100 µM | HL-60 > 100 µM | SNB-75 > 100 µM | Hs-578T > 100 µM | BT-549 > 100 µM | A549 > 100 µM | SW-620 > 100 µM | SF-539 > 100 µM | SK-MEL-28 > 100 µM | M14 > 100 µM | U-251 > 100 µM | MDA-MB-231 > 100 µM | CAKI-1 > 100 µM | ACHN > 100 µM | SF-268 > 100 µM | RXF 393 > 100 µM | UACC-257 > 100 µM

CCC(=O)Nc1ccc(N2C(=O)C(Cl)C2c2ccc(SC)cc2)cc1 (configuration not stated)
inactive: MCF7 56.2 µM | NCI-H23 > 100 µM | SN12C 50.2 µM | HL-60 78.3 µM | SNB-75 > 100 µM | NCI/ADR-RES > 100 µM | Hs-578T > 100 µM | BT-549 > 100 µM | A549 > 100 µM | SW-620 > 100 µM | SF-539 26.9 µM | SK-MEL-28 > 100 µM | M14 > 100 µM | CAKI-1 > 100 µM | ACHN > 100 µM | SF-268 60.3 µM | RXF 393 34.8 µM | UACC-257 44.9 µM

Cc1nc(-c2cc3cc([N+](=O)[O-])ccc3oc2=O)cs1
inactive: MCF7 > 100 µM | SN12C > 100 µM | HL-60 31.8 µM | SNB-75 1.25 µM | Hs-578T > 100 µM | BT-549 > 100 µM | A549 > 100 µM | SW-620 > 100 µM | SF-539 > 100 µM | SK-MEL-28 > 100 µM | M14 > 100 µM | U-251 > 100 µM | MDA-MB-231 80.7 µM | CAKI-1 > 100 µM | ACHN > 100 µM | SF-268 > 100 µM | RXF 393 > 100 µM | UACC-257 > 100 µM

COC(=O)[C@](NC(=O)OCc1ccccc1)([C@@H](C)[S+]([O-])c1ccc(C)cc1)C(F)(F)F (some centres not stated)
inactive: NCI-H23 32.1 µM | HL-60 17 µM | SNB-75 36.4 µM | NCI/ADR-RES 28.7 µM | Hs-578T 58.9 µM | BT-549 22.4 µM | A549 29.9 µM | SW-620 53.2 µM | SK-MEL-28 62.7 µM | M14 48.2 µM | U-251 36.8 µM | MDA-MB-231 59.6 µM | CAKI-1 41 µM | ACHN 39.6 µM | SF-268 41.1 µM | RXF 393 20 µM | UACC-257 24.8 µM

— ChEMBL document CHEMBL1201862, “PubChem BioAssay data set” (2004)
